Among the data in PubChem BioAssay AID1552 (Sanford-Burnham Center for Chemical Genomics, 2009) are Kd values, retold here.

Active and inactive are the calls of the source. No rule for the calls is given here.

By Kd is commonly meant the constant that tells how readily two partners part at equilibrium.

Sequence of Ubiquitin-conjugating enzyme E2 N (Homo sapiens) (P61088 whole entry, looked up): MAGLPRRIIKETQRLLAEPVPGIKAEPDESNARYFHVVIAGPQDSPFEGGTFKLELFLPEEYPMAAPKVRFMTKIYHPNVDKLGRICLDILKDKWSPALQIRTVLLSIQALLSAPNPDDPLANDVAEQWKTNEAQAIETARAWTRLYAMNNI

The experiment concerns the target Ubiquitin-conjugating enzyme E2 N (Homo sapiens) (UniProt P61088). Put plainly: NMR detection of UBE2N ligand binding – biophysical, purified protein (AID 1552). To be noted: NMR binding to purified UBE2N.
For the compound `O=C1C[C@@H](c2ccccc2)Oc2cc(O)cc(O)c21`, the Kd is > 4 mM (inactive).
To `O=c1[nH]c(=S)[nH]c2c1CCC2` belongs > 4 mM (inactive); to `NCc1cccc2nsnc12`, > 4 mM (inactive).
Under `O=C(O)Cn1nnnc1-c1ccc(F)cc1` stands > 4 mM (inactive); under `CC(C)n1c(Nn2cnnc2)nc2ccccc21`, > 4 mM (inactive); under `OCC1CCCC1O` (centres undefined), > 4 mM (inactive).
To `COC(=O)N(c1ccccc1)P1(=S)OCCO1` belongs > 4 mM (inactive).
On to `O=C(/C=C/c1ccco1)NC1=NCCS1`, for which the Kd is > 4 mM (inactive).
Under `S=c1[nH]nc(-c2cccnc2)n1C1CCCCC1` stands > 4 mM (inactive); under `Cc1cc(C)n(CC(=O)NC2CCCCC2)n1`, > 4 mM (inactive).
To `CN1CCN(c2ccc(C(=O)O)cc2)CC1` belongs > 4 mM (inactive); to `NC(CSCSCC(N)C(=O)O)C(=O)O` (centres undefined), > 4 mM (inactive).
On to `COc1cc(/C=C2/NC(=S)NC2=O)cc(Cl)c1O`, for which the Kd is > 4 mM (inactive).
Regarding `Cc1nc2nc(-c3ccco3)nn2c(C)c1Cl`, the Kd was > 4 mM (inactive).
Regarding `COc1ccc2c(c1)c1n[nH]c(=S)nc1n2C`, the Kd was > 4 mM (inactive).
On to `Nc1ccc(O)cn1`, for which the Kd was > 4 mM (inactive).
To `CN1CCC(NC(=O)C2CCCO2)CC1` (centres undefined) belongs > 4 mM (inactive); to `O=C(COc1ccccc1O)NCCO`, > 4 mM (inactive).
To `[O-][n+]1cc(O)c(CN2CCOCC2)c2ccccc21` belongs > 4 mM (inactive); to `Cn1nnc2cc(C(=O)NC3=NCCS3)ccc21`, > 4 mM (inactive); to `O=C(O)CSc1nc2ccccc2c(=O)[nH]1`, > 4 mM (inactive).
Regarding `CN1CCC(N2CCN(C)CC2)CC1`, the Kd is > 4 mM (inactive).
With `O=C(O)C(Cc1cnc[nH]1)N1C(=O)c2ccccc2C1=O` (centres undefined), the Kd is > 4 mM (inactive).
To `COc1cc2c(cc1OC)[C@@H]1C(=O)c3ccc4c(c3O[C@@H]1CO2)CC(C(C)C)O4` (some centres undefined) belongs > 4 mM (inactive); to `COc1ccc(S(=O)(=O)NCCO)cc1`, > 4 mM (inactive); to `Nc1ccc(S(=O)(=O)Nc2ccc(F)cc2F)cc1`, > 4 mM (inactive).
As for `Cc1nc2nc(Cc3ccccc3)[nH]n2c(=O)c1Cl`, the Kd was > 4 mM (inactive).
Under `Cc1cc(C)n(C2CCS(=O)(=O)C2)n1` (centres undefined) stands > 4 mM (inactive); under `O=C(Nc1ccc(Cl)cc1)N1CCCC1`, > 4 mM (inactive).
To `C(=C\c1ccccc1)/C=N/n1cnnc1` belongs > 4 mM (inactive).
Consider `CC(C)(C)CC(=O)NC1=NCCS1`, for which the Kd was > 4 mM (inactive).
Turning to `CC1=CC(=O)C2C(C)(C)CCC[C@]2(C)[C@@]1(O)CCc1ccoc1` (some centres undefined), the Kd is > 4 mM (inactive).
Under `O=C(CSc1ncn[nH]1)c1ccc2c(c1)OCO2` stands > 4 mM (inactive); under `CN(C)c1ccc(CNn2cnnc2)cc1`, > 4 mM (inactive); under `NC(=O)Cn1nc(-c2ccco2)ccc1=O`, > 4 mM (inactive).
To `O=C1COc2cc(O)ccc21` belongs > 4 mM (inactive); to `COc1ccc(-c2cc(=O)c3ccccc3o2)cc1OC`, > 4 mM (inactive); to `c1ccc2c(NC3=NCCS3)cccc2c1`, > 4 mM (inactive).
To `Nc1cccc(NC(=O)c2cccs2)c1` belongs > 4 mM (inactive).
For the compound `COc1ccc2c(c1)OC/C(=C/c1ccc(O)c(O)c1)C2=O`, the Kd is > 4 mM (inactive).
Under `O=C(Nc1ccccc1C(F)(F)F)N1CCCCCC1` stands > 4 mM (inactive).
To `O=C1CC[C@]23/C=C/C(=O)NCCCCNCCCNC(=O)/C=C/c4ccc(c2c4)O[C@@H]3C1` belongs > 4 mM (inactive); to `COc1ccc(-c2coc3cc(O)ccc3c2=O)cc1`, > 4 mM (inactive); to `O=c1n(-c2ccccc2)c(=O)n2n1CCCC2`, > 4 mM (inactive).
`CC(=O)O[C@H]1C[C@@H](OC(C)=O)C(C)(C)C2CC(=O)[C@]3(C)C(CC[C@@]4(C)[C@H](C(=O)O)OC(=O)C5OC543)[C@]21C` (some centres undefined): the Kd was > 4 mM (inactive).
`Cc1cc(C)n2nc(N)nc2n1`: the Kd was > 4 mM (inactive).
On to `O=S(=O)(NCc1ccco1)N1CCOCC1`, for which the Kd was > 4 mM (inactive).
Under `CCN=Cc1c(O)n(-c2ccccc2C)c(=O)[nH]c1=O` stands > 4 mM (inactive).
Under `CC(=O)OCC(=O)[C@@]1(O)CCC2C3CC[C@@H]4C[C@H](OC(C)=O)CC[C@]4(C)C3C(=O)C[C@@]21C` (some centres undefined) stands > 4 mM (inactive); under `Cc1cc(C(=O)NCc2ccco2)cs1`, > 4 mM (inactive).
Consider `O=S(=O)(c1cccc2cccnc12)N1CCOCC1`, for which the Kd was > 4 mM (inactive).
To `S=c1[nH]c2cccnc2[nH]1` belongs > 4 mM (inactive).
To `O=C1CSC(=Nc2ccccc2[N+](=O)[O-])N1` belongs > 4 mM (inactive); to `CC(C)(C)C(=O)Nc1ncc(C(F)(F)F)cc1Cl`, > 4 mM (inactive); to `CC1CCC(N2CCN(c3ncccn3)CC2)CC1` (centres undefined), > 4 mM (inactive).
For `Cc1nc2ccc(F)cc2cc1C(=O)NCc1ccco1`, the Kd is > 4 mM (inactive).
To `O=S(=O)(Nc1cccnc1Cl)c1ccccc1` belongs > 4 mM (inactive).
To `Cc1cc(=O)oc2c1c(C)nn2CN1CCN(C)CC1` belongs > 4 mM (inactive); to `CN(C)S(=O)(=O)NCc1ccc2c(c1)OCO2`, > 4 mM (inactive).
As for `O=C(O)c1cc2ccccc2cn1`, the Kd was > 4 mM (inactive).
As for `CCOc1ccc2nc(NS(C)(=O)=O)sc2c1`, the Kd was > 4 mM (inactive).
For the compound `CCn1c2ccccc2c2nn(C)c(=N)nc21`, the Kd was > 4 mM (inactive).
Under `O=C(O)C1CSC(c2ccc(Cl)cc2)N1` (centres undefined) stands > 4 mM (inactive).
For `NC(=O)c1ccc2c(c1)OCO2`, the Kd was > 4 mM (inactive).
To `CSc1ccc(/C=c2\sc3ncnn3c2=O)cc1` belongs > 4 mM (inactive); to `O=C(O)CC12CC3CC(CC(O)(C3)C1)C2`, > 4 mM (inactive).
Under `c1ccc(C[N+]23CCN(CC2)c2ccccc23)cc1` stands > 4 mM (inactive).
To `Cc1cc(O)c2c(c1O)C(=O)c1c(O)cc(C)c(O)c1C2=O` belongs > 4 mM (inactive).
For `CCn1c(-c2c[nH]c3ccccc23)n[nH]c1=S`, the Kd was > 4 mM (inactive).
On to `N#Cc1cn(CC(=O)N2CCCC2)c2ccccc12`, for which the Kd was > 4 mM (inactive).
To `CC1CN(C2=NCCN2)CC(C)O1` (centres undefined) belongs > 4 mM (inactive); to `Cn1c([O-])c([N+](C)(C)C)c(=O)n(C)c1=O`, > 4 mM (inactive); to `CC(=O)N1CCN(C2CCSC2)CC1` (centres undefined), > 4 mM (inactive).
On to `C[C@H]1OC(O[C@H]2[C@@H](O)CC(O[C@H]3[C@@H](O)C[C@H](O[C@H]4CC[C@]5(C)C6CC[C@]7(C)[C@@H](C8=CC(=O)OC8)[C@@H](O)C[C@]7(O)[C@@H]6CC[C@@H]5C4)O[C@@H]3C)O[C@@H]2C)C[C@H](O)C1O` (some centres undefined), for which the Kd was > 4 mM (inactive).
